The source of these data is patent publication US7247617B2, “Sixteen-member macrolide antiinfective agents” (Kosan Biosciences Incorporated, priority 2004, dated 2007).

One test has as its system S. aureus. As to the kind of experiment: Biological activity against bacterial strains: S. aureus. The format is cell-based, Staphylococcus aureus. On the set-up: unit not given here. As to conditions: for Biological Activity, S. aureus ATCC6538p: strain ATCC6538p; for Biological Activity, S. aureus ATCC14154*: strain ATCC14154, macrolide resistant strain; for Biological Activity, S. aureus ATCC29213: strain ATCC29213; for Biological Activity, S. aureus ATCC33591*: strain ATCC33591, macrolide resistant strain; for Biological Activity, S. aureus ATCCBAA-39*: strain ATCCBAA-39, macrolide resistant strain; for Biological Activity, S. aureus ATCCBAA-44*: strain ATCCBAA-44, macrolide resistant strain.

In the next test the test system is E. faecalis. As to the kind of experiment: Biological activity against bacterial strains: E. faecalis. The format is cell-based, Enterococcus faecalis. The following applies: strain ATCC51575.
A further test has as its system S. epidermidis. The experiment in a line: Biological activity against bacterial strains: S. epidermidis. The format is cell-based, Staphylococcus epidermidis. As to conditions: strain ATCC12228.
Another test concerns S. pneumoniae. The experiment in a line: Biological activity against bacterial strains: S. pneumoniae. The format is cell-based, Streptococcus pneumoniae. Further details: Biological Activity, S. pneumoniae ATCC6301 / Biological Activity, S. pneumoniae ATCC700671 / Biological Activity, S. pneumoniae ATCC700676* / Biological Activity, S. pneumoniae ATCC700677* / Biological Activity, S. pneumoniae ATCC700905* / Biological Activity, S. pneumoniae ATCC700906* / Biological Activity, S. pneumoniae ATCC49619: unit not given here. As to conditions: for Biological Activity, S. pneumoniae ATCC6301: strain ATCC6301; for Biological Activity, S. pneumoniae ATCC49619: strain ATCC49619; for Biological Activity, S. pneumoniae ATCC700671: strain ATCC700671; for Biological Activity, S. pneumoniae ATCC700676*: strain ATCC700676, macrolide resistant strain; for Biological Activity, S. pneumoniae ATCC700677*: strain ATCC700677, macrolide resistant strain; for Biological Activity, S. pneumoniae ATCC700905*: strain ATCC700905, macrolide resistant strain; for Biological Activity, S. pneumoniae ATCC700906*: strain ATCC700906, macrolide resistant strain.

SMILES strings stand for the structures. Where only a bound is given, the exact number is not on record here.

Regarding `CC[C@H]1OC(=O)C[C@@H](O)[C@H](C)[C@@H](OC2OC(C)C(O)C(N(C)C)C2O)[C@@H](CC=O)C[C@@H](C)C(=N/OCCOc2ccccc2)/C=C/C(C)=C/C1CO` (stereo partly drawn) [Compound IIa], in the test with S. aureus, the “Biological Activity, S. aureus ATCC6538p” value was 0.78; the “Biological Activity, S. aureus ATCC14154*” value amounted to 1.56; the “Biological Activity, S. aureus ATCC29213” value is 1.56; the “Biological Activity, S. aureus ATCC33591*” value was more than 12.5. In the test on S. aureus, the “Biological Activity, S. aureus ATCCBAA-39*” value was more than 12.5 and the “Biological Activity, S. aureus ATCCBAA-44*” value is on record as more than 12.5. The “Biological Activity, E. faecalis ATCC51575” value in the test with E. faecalis is listed as more than 12.5. In addition, the “Biological Activity, S. epidermidis ATCC12228” value in the test on S. epidermidis was determined as 1.56. In the test with S. pneumoniae, the “Biological Activity, S. pneumoniae ATCC6301” value was determined as 0.20; the “Biological Activity, S. pneumoniae ATCC49619” value was found to be 0.20; the “Biological Activity, S. pneumoniae ATCC700671” value was determined as 0.39; the “Biological Activity, S. pneumoniae ATCC700676*” value came to 0.20. Besides, in the test on S. pneumoniae, the “Biological Activity, S. pneumoniae ATCC700677*” value came out at 3.12; the “Biological Activity, S. pneumoniae ATCC700905*” value was 0.39; the “Biological Activity, S. pneumoniae ATCC700906*” value is on record as more than 12.5.

On to `CCC1OC(=O)CC(O)C(C)C(OC2OC(C)C(O)C(N(C)C)C2O)C(CCN2CC(C)CC(C)C2)CC(C)C(=NOCCCCOc2ccc3ncccc3c2)C=CC(C)=CC1CO` (single isomer, unassigned) [Compound U], for which, in the test with S. aureus, the “Biological Activity, S. aureus ATCC6538p” value is given as more than 12.5; the “Biological Activity, S. aureus ATCC14154*” value is reported as more than 12.5; the “Biological Activity, S. aureus ATCC29213” value is listed as more than 12.5; the “Biological Activity, S. aureus ATCC33591*” value is more than 12.5. In addition, in the test on S. aureus, the “Biological Activity, S. aureus ATCCBAA-39*” value is listed as more than 12.5 and the “Biological Activity, S. aureus ATCCBAA-44*” value was more than 12.5. Further, the “Biological Activity, E. faecalis ATCC51575” value in the test on E. faecalis is more than 12.5. The “Biological Activity, S. epidermidis ATCC12228” value in the test on S. epidermidis is more than 12.5. Further, in the test with S. pneumoniae, the “Biological Activity, S. pneumoniae ATCC6301” value is listed as 6.25; the “Biological Activity, S. pneumoniae ATCC49619” value is 12.5; the “Biological Activity, S. pneumoniae ATCC700671” value was 12.5; the “Biological Activity, S. pneumoniae ATCC700676*” value is more than 12.5. Also, in the test on S. pneumoniae, the “Biological Activity, S. pneumoniae ATCC700677*” value is given as more than 12.5; the “Biological Activity, S. pneumoniae ATCC700905*” value is 12.5; the “Biological Activity, S. pneumoniae ATCC700906*” value was more than 12.5.

Regarding `CO[C@@H]1[C@@H](OC2OC(C)C(O)C(N(C)C)C2O)[C@@H](CC=O)C[C@@H](C)C(=N/OCCCOc2ccc3ncccc3c2)/C=C/C=C/C[C@@H](C)OC(=O)C[C@H]1O` (stereo partly drawn) [Compound HH], in the test with S. aureus, the “Biological Activity, S. aureus ATCC6538p” value was 0.2; the “Biological Activity, S. aureus ATCC14154*” value was found to be 0.78; the “Biological Activity, S. aureus ATCC29213” value stood at 3.12; the “Biological Activity, S. aureus ATCC33591*” value is more than 12.5. Moreover, in the test on S. aureus, the “Biological Activity, S. aureus ATCCBAA-39*” value was more than 12.5 and the “Biological Activity, S. aureus ATCCBAA-44*” value is listed as more than 12.5. Further, the “Biological Activity, E. faecalis ATCC51575” value with E. faecalis is given as more than 12.5. In addition, the “Biological Activity, S. epidermidis ATCC12228” value in the test on S. epidermidis is 0.78. In the test on S. pneumoniae, the “Biological Activity, S. pneumoniae ATCC6301” value came to 0.025; the “Biological Activity, S. pneumoniae ATCC49619” value was determined as 0.025; the “Biological Activity, S. pneumoniae ATCC700671” value is 0.025; the “Biological Activity, S. pneumoniae ATCC700676*” value came out at 0.025. Besides, in the test on S. pneumoniae, the “Biological Activity, S. pneumoniae ATCC700677*” value came out at 3.12; the “Biological Activity, S. pneumoniae ATCC700905*” value was 0.025; the “Biological Activity, S. pneumoniae ATCC700906*” value is more than 12.5.

Turning to `CCC1OC(=O)CC(O)C(C)C(OC2OC(C)C(O)C(N(C)C)C2O)C(CCN2CC(C)CC(C)C2)CC(C)C(=NOCCCCOc2ccc3ncccc3c2)C=CC(C)=CC1CO` (single isomer, unassigned) [Compound T], in the test with S. aureus, the “Biological Activity, S. aureus ATCC6538p” value was 6.25; the “Biological Activity, S. aureus ATCC14154*” value is reported as more than 12.5; the “Biological Activity, S. aureus ATCC29213” value was 12.5; the “Biological Activity, S. aureus ATCC33591*” value is more than 12.5. Further, in the test with S. aureus, the “Biological Activity, S. aureus ATCCBAA-39*” value is more than 12.5 and the “Biological Activity, S. aureus ATCCBAA-44*” value is more than 12.5. Moreover, the “Biological Activity, E. faecalis ATCC51575” value in the test on E. faecalis is more than 12.5. For the same compound, the “Biological Activity, S. epidermidis ATCC12228” value in the test on S. epidermidis was more than 12.5. In addition, in the test with S. pneumoniae, the “Biological Activity, S. pneumoniae ATCC6301” value stood at 1.56; the “Biological Activity, S. pneumoniae ATCC49619” value amounted to 6.25; the “Biological Activity, S. pneumoniae ATCC700671” value was 3.12; the “Biological Activity, S. pneumoniae ATCC700676*” value came to 6.25. Moreover, in the test with S. pneumoniae, the “Biological Activity, S. pneumoniae ATCC700677*” value is given as more than 12.5; the “Biological Activity, S. pneumoniae ATCC700905*” value is 6.25; the “Biological Activity, S. pneumoniae ATCC700906*” value is recorded as more than 12.5.

Consider `CCC1OC(=O)CC(O)C(C)C(OC2OC(C)C(O)C(N(C)C)C2O)C(CC=O)CC(C)C(=NOCC(=O)N2CCN(c3ccccc3)CC2)C=CC(C)=CC1CO` (stereo not drawn) [Compound C], for which, in the test on S. aureus, the “Biological Activity, S. aureus ATCC6538p” value is 0.78; the “Biological Activity, S. aureus ATCC14154*” value amounted to 1.56; the “Biological Activity, S. aureus ATCC29213” value came to 1.56; the “Biological Activity, S. aureus ATCC33591*” value is more than 12.5. In the test with S. aureus, the “Biological Activity, S. aureus ATCCBAA-39*” value is listed as more than 12.5 and the “Biological Activity, S. aureus ATCCBAA-44*” value is listed as more than 12.5. In addition, in the test on E. faecalis, the “Biological Activity, E. faecalis ATCC51575” value is recorded as more than 12.5. Moreover, the “Biological Activity, S. epidermidis ATCC12228” value with S. epidermidis is on record as 0.20. In the test on S. pneumoniae, the “Biological Activity, S. pneumoniae ATCC6301” value is listed as 0.025; the “Biological Activity, S. pneumoniae ATCC49619” value is 0.01; the “Biological Activity, S. pneumoniae ATCC700671” value stood at 0.025; the “Biological Activity, S. pneumoniae ATCC700676*” value amounted to 0.39. In the test with S. pneumoniae, the “Biological Activity, S. pneumoniae ATCC700677*” value turned out to be 6.25; the “Biological Activity, S. pneumoniae ATCC700905*” value is listed as 0.20; the “Biological Activity, S. pneumoniae ATCC700906*” value was more than 12.5.

`CC[C@H]1OC(=O)C[C@@H](O)[C@H](C)[C@@H](O[C@@H]2O[C@H](C)[C@@H](O)[C@H](N(C)C)[C@H]2O)[C@@H](CCN2C[C@H](C)C[C@H](C)C2)C[C@@H](C)C(=O)/C=C/C(C)=C/[C@@H]1CO[C@@H]1O[C@H](C)[C@@H](O)[C@@H](OC)[C@H]1OC` [Tilm, tilmicosin, reference compound]: in the test on S. aureus, the “Biological Activity, S. aureus ATCC6538p” value came to 0.098; the “Biological Activity, S. aureus ATCC14154*” value is given as 0.39; the “Biological Activity, S. aureus ATCC29213” value is on record as 0.20; the “Biological Activity, S. aureus ATCC33591*” value is given as more than 12.5. Also, in the test on S. aureus, the “Biological Activity, S. aureus ATCCBAA-39*” value is recorded as more than 12.5 and the “Biological Activity, S. aureus ATCCBAA-44*” value was more than 12.5. Further, in the test on E. faecalis, the “Biological Activity, E. faecalis ATCC51575” value is more than 12.5. Also, the “Biological Activity, S. epidermidis ATCC12228” value with S. epidermidis came out at 0.098. In the test with S. pneumoniae, the “Biological Activity, S. pneumoniae ATCC6301” value is listed as 0.39; the “Biological Activity, S. pneumoniae ATCC49619” value amounted to 1.56; the “Biological Activity, S. pneumoniae ATCC700671” value turned out to be 0.78; the “Biological Activity, S. pneumoniae ATCC700676*” value came to 0.78. Also, in the test with S. pneumoniae, the “Biological Activity, S. pneumoniae ATCC700677*” value is 6.25; the “Biological Activity, S. pneumoniae ATCC700905*” value was 1.56; the “Biological Activity, S. pneumoniae ATCC700906*” value is given as more than 12.5.
